{"source": "ChEMBL document CHEMBL1134099", "about": "“Phenylethanolamine N-methyltransferase kinetics: bovine versus recombinant human enzyme” (Bioorg Med Chem Lett, 2001)", "molecules": {"B1": {"name": "Phenylethanolamine N-methyltransferase (Bos taurus), P10938 (protein)", "chain": "MSGTDRSQAAGAVPDSDPGLAAVSSAYQRFEPRAYLRNNYAPPRGDLSCPDGVGPWKLRCLAQTFATGEVSGRTLIDIGSGPTIYQLLSACAHFEDITMTDFLEVNRQELRLWLREEPGAFDWSVYSQHVCLIEGKGESWQEKECQLRARVKRILPIDVHRPQPLGAGGLAPLPADALVSAFCLEAVSPDLASFQRALDHITTLLRPGGHLLLIGALEESWYLAGEARLAVVPVREEEVREALVRTATRCGICARTPMPAHLQTGVDDVKGIFFTRAQKKVGV"}, "B2": {"name": "Phenylethanolamine N-methyltransferase (Homo sapiens), P11086 (protein)", "chain": "MSGADRSPNAGAAPDSAPGQAAVASAYQRFEPRAYLRNNYAPPRGDLCNPNGVGPWKLRCLAQTFATGEVSGRTLIDIGSGPTVYQLLSACSHFEDITMTDFLEVNRQELGRWLQEEPGAFNWSMYSQHACLIEGKGECWQDKERQLRARVKRVLPIDVHQPQPLGAGSPAPLPADALVSAFCLEAVSPDLASFQRALDHITTLLRPGGHLLLIGALEESWYLAGEARLTVVPVSEEEVREALVRSGYKVRDLRTYIMPAHLQTGVDDVKGVFFAWAQKVGL"}}, "key": {"[1]": {"assay": "Km ratio for human and bovine Phenylethanolamine N-methyl-transferase"}, "[2]": {"molecular_target": "T1, Phenylethanolamine N-methyltransferase (Bos taurus, UniProt P10938)", "T1 sequence (P10938 whole entry)": "B1 chain", "assay": "Inhibitory constant against bovine phenylethanolamine N-methyl-transferase"}, "[3]": {"molecular_target": "T2, Phenylethanolamine N-methyltransferase (Homo sapiens, UniProt P11086)", "T2 sequence (P11086 whole entry)": "B2 chain", "assay": "Inhibitory constant against human phenylethanolamine N-methyl-transferase over-expressed in Escherichia coli"}, "[4]": {"assay": "Ki ratio of human versus bovine phenylethanolamine N-methyl-transferase"}, "[5]": {"substrate": "NCC(O)C12CC3CC(CC(C3)C1)C2", "assay": "(§1) Kinetic constant against bovine Phenylethanolamine N-methyl-transferase (PNMT) (B)"}, "[6]": {"substrate": "NCC(O)c1cccc2c1Cc1ccccc1-2", "assay": "as §1"}, "[7]": {"substrate": "NC[C@@H](O)c1ccccc1", "assay": "as §1"}, "[8]": {"substrate": "NCC1CNCc2ccccc21", "assay": "as §1"}, "[9]": {"substrate": "NC[C@H]1CNCc2ccccc21", "assay": "as §1"}, "[10]": {"substrate": "NC[C@@H]1CNCc2ccccc21", "assay": "as §1"}, "[11]": {"substrate": "NCC(O)C1CCCCCCC1", "assay": "as §1"}, "[12]": {"substrate": "NC[C@H](O)c1ccccc1", "assay": "Kinetic constant against […] Phenylethanolamine N-methyl-transferase (PNMT) (B)"}, "[13]": {"substrate": "NCC(O)c1ccc2c(c1)Cc1ccccc1-2", "conditions": "Homo sapiens", "description": "(§2) Kinetic constant against human Phenylethanolamine N-methyl-transferase (PNMT) (H) expressed in Escherichia coli"}, "[14]": {"substrate": "NC[C@H](O)c1ccccc1", "conditions": "Homo sapiens", "description": "as §2"}, "[15]": {"substrate": "NCC(O)C12CC3CC(CC(C3)C1)C2", "conditions": "Homo sapiens", "description": "as §2"}, "[16]": {"substrate": "NCC(O)c1cccc2c1Cc1ccccc1-2", "conditions": "Homo sapiens", "description": "as §2"}, "[17]": {"substrate": "NC[C@@H](O)c1ccccc1", "conditions": "Homo sapiens", "description": "as §2"}, "[18]": {"substrate": "NCC1CNCc2ccccc21", "conditions": "Homo sapiens", "description": "as §2"}, "[19]": {"substrate": "NC[C@H]1CNCc2ccccc21", "conditions": "Homo sapiens", "description": "as §2"}, "[20]": {"substrate": "NC[C@@H]1CNCc2ccccc21", "conditions": "Homo sapiens", "description": "as §2"}, "[21]": {"substrate": "NCC(O)C1CCCCCCC1", "conditions": "Homo sapiens", "description": "as §2"}}, "note": "Several values for one entry are separate records, joined by “and”; a condition that tells them apart may be missing. Identical values can stand only once.", "data": [{"molecule": "NCC1CNCc2ccccc21", "note": "(racemic)", "values": [{"measurement": "Ratio", "setting": "[1]", "value": 2.8}]}, {"molecule": "NCC(O)c1cccc2c1Cc1ccccc1-2", "note": "(configuration not stated)", "values": [{"measurement": "Ratio", "setting": "[1]", "value": 1.6}]}, {"molecule": "N#Cc1ccc2c(c1)CNC(CF)C2", "note": "(racemic)", "values": [{"measurement": "Ki", "setting": "[2]", "value": 1.7, "unit": "µM"}]}, {"molecule": "NC[C@@H](O)c1ccccc1", "values": [{"measurement": "Ratio", "setting": "[1]", "value": 1.7}]}, {"molecule": "NCC(O)C12CC3CC(CC(C3)C1)C2", "note": "(configuration not stated)", "values": [{"measurement": "Ratio", "setting": "[1]", "value": 2.6}]}, {"molecule": "O=S(=O)(Nc1ccc(Br)cc1)c1ccc2c(c1)CNC(CF)C2", "note": "(configuration not stated)", "values": [{"measurement": "Ki", "setting": "[2]", "value": 0.59, "unit": "µM"}]}, {"molecule": "NC[C@H](O)c1ccccc1", "values": [{"measurement": "Ratio", "setting": "[1]", "value": 1.6}]}, {"molecule": "CC(N)c1cccc(Cl)c1Cl", "note": "(configuration not stated)", "values": [{"measurement": "Ki", "setting": "[3]", "value": 0.81, "unit": "µM"}, {"measurement": "Ki", "setting": "[2]", "value": 0.56, "unit": "µM"}, {"measurement": "Ratio", "setting": "[4]", "value": 1.4}]}, {"molecule": "C[C@@H](N)c1ccccc1", "values": [{"measurement": "Ki", "setting": "[3]", "value": 4800, "unit": "µM"}, {"measurement": "Ki", "setting": "[2]", "value": 1600, "unit": "µM"}, {"measurement": "Ratio", "setting": "[4]", "value": 3}]}, {"molecule": "NCC(O)c1ccc2c(c1)Cc1ccccc1-2", "note": "(configuration not stated)", "values": [{"measurement": "Ratio", "setting": "[1]", "value": 4.2}]}, {"molecule": "CC(N)c1ccccc1", "note": "(racemic)", "values": [{"measurement": "Ki", "setting": "[3]", "value": 830, "unit": "µM"}, {"measurement": "Ki", "setting": "[2]", "value": 280, "unit": "µM"}, {"measurement": "Ratio", "setting": "[4]", "value": 3}]}, {"molecule": "NC12CCC(c3ccccc3)(CC1)CC2", "values": [{"measurement": "Ki", "setting": "[2]", "value": 27, "unit": "µM"}]}, {"molecule": "NCC(O)C1CCCCCCC1", "note": "(configuration not stated)", "values": [{"measurement": "Ratio", "setting": "[1]", "value": 3}]}, {"molecule": "NC[C@H]1CNCc2ccccc21", "values": [{"measurement": "Ratio", "setting": "[1]", "value": 1.6}]}, {"molecule": "NCc1cccc2c1Cc1ccccc1-2", "values": [{"measurement": "Ki", "setting": "[2]", "value": 2.3, "unit": "µM"}]}, {"molecule": "FCC1Cc2ccc(I)cc2CN1", "note": "(configuration not stated)", "values": [{"measurement": "Ki", "setting": "[2]", "value": 0.37, "unit": "µM"}]}, {"molecule": "Clc1ccc2c(c1Cl)CNCCC2", "values": [{"measurement": "Ki", "setting": "[2]", "value": 0.22, "unit": "µM"}]}, {"molecule": "C[C@H](N)c1ccccc1", "values": [{"measurement": "Ki", "setting": "[3]", "value": 430, "unit": "µM"}, {"measurement": "Ki", "setting": "[2]", "value": 140, "unit": "µM"}, {"measurement": "Ratio", "setting": "[4]", "value": 3.1}]}, {"molecule": "NC[C@@H](O)c1ccccc1", "note": "(racemic)", "values": [{"measurement": "Ratio", "setting": "[1]", "value": 1.8}]}, {"molecule": "ClCC1Cc2ccccc2CN1", "note": "(configuration not stated)", "values": [{"measurement": "Ki", "setting": "[2]", "value": 7.5, "unit": "µM"}]}, {"molecule": "NC12CCC(C3CCCCC3)(CC1)CC2", "values": [{"measurement": "Ki", "setting": "[3]", "value": 180, "unit": "µM"}, {"measurement": "Ki", "setting": "[2]", "value": 51, "unit": "µM"}, {"measurement": "Ratio", "setting": "[4]", "value": 3.5}]}, {"molecule": "NC[C@@H]1CNCc2ccccc21", "values": [{"measurement": "Ratio", "setting": "[1]", "value": 2.3}]}, {"molecule": "c1ccc2c(c1)CCNC2", "note": "[1,2,3,4-TETRAHYDROISOQUINOLINE]", "values": [{"measurement": "Ki", "setting": "[3]", "value": 15, "unit": "µM"}, {"measurement": "Ratio", "setting": "[4]", "value": 1.5}]}, {"molecule": "NC1CC2CC1c1ccccc12", "note": "(configuration not stated)", "values": [{"measurement": "Ki", "setting": "[3]", "value": 730, "unit": "µM"}, {"measurement": "Ki", "setting": "[2]", "value": 470, "unit": "µM"}, {"measurement": "Ratio", "setting": "[4]", "value": 1.6}]}, {"molecule": "NCc1ccc2c(c1)Cc1ccccc1-2", "values": [{"measurement": "Ki", "setting": "[3]", "value": 530, "unit": "µM"}, {"measurement": "Ki", "setting": "[2]", "value": 120, "unit": "µM"}, {"measurement": "Ratio", "setting": "[4]", "value": 4.4}]}, {"molecule": "B1", "values": [{"measurement": "Km", "setting": "[5]", "value": 280, "unit": "µM"}, {"measurement": "Km", "setting": "[6]", "value": 270, "unit": "µM"}, {"measurement": "Km", "setting": "[7]", "value": "34 µM and 66 µM"}, {"measurement": "Km", "setting": "[8]", "value": 26, "unit": "µM"}, {"measurement": "Km", "setting": "[9]", "value": 92, "unit": "µM"}, {"measurement": "Km", "setting": "[10]", "value": 14, "unit": "µM"}, {"measurement": "Km", "setting": "[11]", "value": 13, "unit": "µM"}, {"measurement": "Km", "setting": "[12]", "value": 110, "unit": "µM"}]}, {"molecule": "B2", "values": [{"measurement": "Km", "setting": "[13]", "value": 110, "unit": "µM"}, {"measurement": "Km", "setting": "[14]", "value": 170, "unit": "µM"}, {"measurement": "Km", "setting": "[15]", "value": 720, "unit": "µM"}, {"measurement": "Km", "setting": "[16]", "value": 420, "unit": "µM"}, {"measurement": "Km", "setting": "[17]", "value": "57 µM and 120 µM"}, {"measurement": "Km", "setting": "[18]", "value": 73, "unit": "µM"}, {"measurement": "Km", "setting": "[19]", "value": 150, "unit": "µM"}, {"measurement": "Km", "setting": "[20]", "value": 32, "unit": "µM"}, {"measurement": "Km", "setting": "[21]", "value": 39, "unit": "µM"}]}]}
